Experimental data reported in publication PMC10895678 (Journal of Medicinal Chemistry, 2024).
≈ marks a conversion by molar mass, not a printed value.

Tests used:
M. tuberculosis H37Rv = assay: MIC, resazurin microtiter assay (REMA), H37Rv; assay type: cell-based; conditions: Mycobacterium tuberculosis, drug-sensitive reference strain, read-out: M. tb H37Rv MIC99
Procedure: The previously described resazurin microtiter assay (REMA) plate method was used.[73],[74] Compounds were two-fold serially diluted in CAMR Mycobacterium Medium MOD2 (CMM MOD2).[75] Individual wells, in a 96-well plate, were inoculated with 1 × 10^6 CFU mL^–1 bacilli and incubated for 7 days at 37 °C with agitation (200 rpm). Following this, resazurin solution was added to wells (0.02% (w/v) in PBS pH 7.4, supplemented with 5% Tween 80).[76] The 96-well plates were incubated at room temperature for 6 h. The OD570nm of each well was recorded using a Tecan Sunrise plate reader. The minimum inhibitory concentration (MIC99) was calculated using a modified Gompertz function.[77] The optical density measurements for each drug concentration were compared to vehicle control to determine the percentage reduction in bacterial optical density.

[1] = Mouse PPB, rapid equilibrium dialysis; assay type: in vitro ADME; conditions: mouse plasma (100%), RED, 37 °C
Procedure: Compounds were solubilized (10 mM in DMSO), and rapid equilibrium dialysis (RED) was used to measure the percentage binding to mouse plasma protein of the BGAz compounds at a final concentration of 5 μM. The BGAz compound was incubated in 100% mouse plasma and dialyzed against buffer in a RED device for 4 h at 37 °C in a 5% CO2 incubator, with continuous shaking at 200 rpm. Samples were matrix-matched and analyzed by LC-MS/MS against a six-point standard curve prepared with 100% plasma. All experiments were performed in triplicate.

CNCC1CC(c2ccc(OC(F)(F)F)cc2)N1Cc1ccccc1OC(F)(F)F (stereo not drawn) [BGAz-005]
MIC99 (M. tuberculosis H37Rv): 7.2 µM (≈ 3.13 µg/mL)
fraction unbound at 4 h, 5 μM [1]: < 0.01

FC(F)(F)Oc1ccc(C2CC(CN3CCCC3)N2Cc2ccccc2OC(F)(F)F)cc1 (stereo not drawn) [BGAz-002]
MIC99 (M. tuberculosis H37Rv): 6.2 µM (≈ 2.94 µg/mL)
fraction unbound at 4 h, 5 μM [1]: < 0.01

Brc1cc(Br)cc(C2CC(CN3CCCC3)N2Cc2ccccc2Br)c1 (stereo not drawn) [BGAz-004]
MIC99 (M. tuberculosis H37Rv): 3.3 µM (≈ 1.79 µg/mL)
fraction unbound at 4 h, 5 μM [1]: < 0.01
